Laboratory results reported in paper PMC7156458, “Synthetic biology based construction of biological activity-related library of fungal decalin-containing diterpenoid pyrones” (Nature Communications, 2020).

Molecular target: Aβ42 (Homo sapiens, UniProt P05067)
Test: Th-T (thioflavin-T) assay of Aβ42 aggregation
Type: biochemical
Settings: for Th-T fluorescence of Aβ42 (sheet Fig. 7a), mean of three wells: head suffix _50 (concentration 50); for Th-T assay plate reading, mean of three wells (Supplementary Fig. 47): source data, Ab alone and No Ab as controls; for Th-T fluorescence, mean of three wells: Supplementary Fig. 47 source data

Chain of Aβ42 (P05067 672-713): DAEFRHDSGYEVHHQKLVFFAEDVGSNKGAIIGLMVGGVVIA

C=C1CC[C@@H]2[C@](C)(CC[C@H]3O[C@H](C=C(C)C)C[C@@]23C)[C@@H]1Cc1c(OC)oc(CO)c(C(=O)OC)c1=O [Compound 21]
Th-T fluorescence of Aβ42 (sheet Fig. 7a), mean of three wells (reading M73): 0.2746 | Th-T fluorescence of Aβ42 (sheet Fig. 7a), mean of three wells (reading M74): 0.2806 | Th-T fluorescence of Aβ42 (sheet Fig. 7a), mean of three wells (reading M75): 0.286 | Th-T fluorescence of Aβ42 (sheet Fig. 7a), mean of three wells (reading M76): 0.2937 | Th-T fluorescence of Aβ42 (sheet Fig. 7a), mean of three wells (reading M77): 0.3019 | Th-T fluorescence of Aβ42 (sheet Fig. 7a), mean of three wells (reading M78): 0.3119 | Th-T fluorescence of Aβ42 (sheet Fig. 7a), mean of three wells (reading M79): 0.3191 | Th-T fluorescence of Aβ42 (sheet Fig. 7a), mean of three wells (reading M80): 0.3266 | Th-T fluorescence of Aβ42 (sheet Fig. 7a), mean of three wells (reading M81): 0.339 | Th-T fluorescence of Aβ42 (sheet Fig. 7a), mean of three wells (reading M82): 0.3487 | Th-T fluorescence of Aβ42 (sheet Fig. 7a), mean of three wells (reading M83): 0.3612 | Th-T fluorescence of Aβ42 (sheet Fig. 7a), mean of three wells (reading M84): 0.3714 | Th-T assay plate reading, mean of three wells (Supplementary Fig. 47) (measurement M1): 0.221 | Th-T assay plate reading, mean of three wells (Supplementary Fig. 47) (measurement M2): 0.2228 | Th-T assay plate reading, mean of three wells (Supplementary Fig. 47) (measurement M3): 0.2221 | Th-T assay plate reading, mean of three wells (Supplementary Fig. 47) (measurement M4): 0.222 | Th-T assay plate reading, mean of three wells (Supplementary Fig. 47) (measurement M5): 0.2108 | Th-T assay plate reading, mean of three wells (Supplementary Fig. 47) (measurement M6): 0.2062 | Th-T assay plate reading, mean of three wells (Supplementary Fig. 47) (measurement M7): 0.1997 | Th-T assay plate reading, mean of three wells (Supplementary Fig. 47) (measurement M8): 0.1959 | Th-T assay plate reading, mean of three wells (Supplementary Fig. 47) (measurement M9): 0.193 | Th-T assay plate reading, mean of three wells (Supplementary Fig. 47) (measurement M10): 0.1931 | Th-T assay plate reading, mean of three wells (Supplementary Fig. 47) (measurement M11): 0.1918 | Th-T assay plate reading, mean of three wells (Supplementary Fig. 47) (measurement M12): 0.1925 | Th-T assay plate reading, mean of three wells (Supplementary Fig. 47) (measurement M13): 0.1929 | Th-T assay plate reading, mean of three wells (Supplementary Fig. 47) (measurement M14): 0.1925 | Th-T assay plate reading, mean of three wells (Supplementary Fig. 47) (measurement M15): 0.1938 | Th-T assay plate reading, mean of three wells (Supplementary Fig. 47) (measurement M16): 0.1946 | Th-T fluorescence, mean of three wells (Fig. 7a) (reading M107, compound at 10 (head suffix _10)): 1.6819 | Th-T fluorescence, mean of three wells (Fig. 7a) (reading M107, compound at 20 (head suffix _20)): 0.9322 | Th-T fluorescence, mean of three wells (Fig. 7a) (reading M107, compound at 50 (head suffix _50)): 0.4795 | Th-T fluorescence, mean of three wells (Fig. 7a) (reading M108, compound at 10 (head suffix _10)): 1.643 | Th-T fluorescence, mean of three wells (Fig. 7a) (reading M108, compound at 20 (head suffix _20)): 0.9316 | Th-T fluorescence, mean of three wells (Fig. 7a) (reading M108, compound at 50 (head suffix _50)): 0.4805 | Th-T fluorescence, mean of three wells (Fig. 7a) (reading M109, compound at 10 (head suffix _10)): 1.641 | Th-T fluorescence, mean of three wells (Fig. 7a) (reading M109, compound at 20 (head suffix _20)): 0.9416 | Th-T fluorescence, mean of three wells (Fig. 7a) (reading M109, compound at 50 (head suffix _50)): 0.4841 | Th-T fluorescence, mean of three wells (Fig. 7a) (reading M110, compound at 10 (head suffix _10)): 1.6563 | Th-T fluorescence, mean of three wells (Fig. 7a) (reading M110, compound at 20 (head suffix _20)): 0.9358 | Th-T fluorescence, mean of three wells (Fig. 7a) (reading M110, compound at 50 (head suffix _50)): 0.4823 | Th-T fluorescence, mean of three wells (Fig. 7a) (reading M111, compound at 10 (head suffix _10)): 1.67 | Th-T fluorescence, mean of three wells (Fig. 7a) (reading M111, compound at 20 (head suffix _20)): 0.9311 | Th-T fluorescence, mean of three wells (Fig. 7a) (reading M111, compound at 50 (head suffix _50)): 0.4866 | Th-T fluorescence, mean of three wells (Fig. 7a) (reading M112, compound at 10 (head suffix _10)): 1.658 | Th-T fluorescence, mean of three wells (Fig. 7a) (reading M112, compound at 20 (head suffix _20)): 0.9334 | Th-T fluorescence, mean of three wells (Fig. 7a) (reading M112, compound at 50 (head suffix _50)): 0.4858 | Th-T fluorescence, mean of three wells (Fig. 7a) (reading M113, compound at 10 (head suffix _10)): 1.671 | Th-T fluorescence, mean of three wells (Fig. 7a) (reading M113, compound at 20 (head suffix _20)): 0.9626 | Th-T fluorescence, mean of three wells (Fig. 7a) (reading M113, compound at 50 (head suffix _50)): 0.4847 | Th-T fluorescence, mean of three wells (Fig. 7a) (reading M114, compound at 10 (head suffix _10)): 1.656 | Th-T fluorescence, mean of three wells (Fig. 7a) (reading M114, compound at 20 (head suffix _20)): 0.941 | Th-T fluorescence, mean of three wells (Fig. 7a) (reading M114, compound at 50 (head suffix _50)): 0.488 | Th-T fluorescence, mean of three wells (Fig. 7a) (reading M115, compound at 10 (head suffix _10)): 1.673 | Th-T fluorescence, mean of three wells (Fig. 7a) (reading M115, compound at 20 (head suffix _20)): 0.9605 | Th-T fluorescence, mean of three wells (Fig. 7a) (reading M115, compound at 50 (head suffix _50)): 0.4915 | Th-T fluorescence, mean of three wells (Fig. 7a) (reading M116, compound at 10 (head suffix _10)): 1.71 | Th-T fluorescence, mean of three wells (Fig. 7a) (reading M116, compound at 20 (head suffix _20)): 0.9595 | Th-T fluorescence, mean of three wells (Fig. 7a) (reading M116, compound at 50 (head suffix _50)): 0.4913 | Th-T fluorescence, mean of three wells (Fig. 7a) (reading M117, compound at 10 (head suffix _10)): 1.657 | Th-T fluorescence, mean of three wells (Fig. 7a) (reading M117, compound at 20 (head suffix _20)): 0.9521 | Th-T fluorescence, mean of three wells (Fig. 7a) (reading M117, compound at 50 (head suffix _50)): 0.4909 | Th-T fluorescence, mean of three wells (Fig. 7a) (reading M118, compound at 10 (head suffix _10)): 1.7 | Th-T fluorescence, mean of three wells (Fig. 7a) (reading M118, compound at 20 (head suffix _20)): 0.9478 | Th-T fluorescence, mean of three wells (Fig. 7a) (reading M118, compound at 50 (head suffix _50)): 0.4918 | Th-T fluorescence, mean of three wells (Fig. 7a) (reading M119, compound at 10 (head suffix _10)): 1.686 | Th-T fluorescence, mean of three wells (Fig. 7a) (reading M119, compound at 20 (head suffix _20)): 0.9445 | Th-T fluorescence, mean of three wells (Fig. 7a) (reading M119, compound at 50 (head suffix _50)): 0.4929 | Th-T fluorescence, mean of three wells (Fig. 7a) (reading M120, compound at 10 (head suffix _10)): 1.675 | Th-T fluorescence, mean of three wells (Fig. 7a) (reading M120, compound at 20 (head suffix _20)): 0.9469 | Th-T fluorescence, mean of three wells (Fig. 7a) (reading M120, compound at 50 (head suffix _50)): 0.4937 | Th-T fluorescence, mean of three wells (Fig. 7a) (reading M121, compound at 10 (head suffix _10)): 1.7005 | Th-T fluorescence, mean of three wells (Fig. 7a) (reading M121, compound at 20 (head suffix _20)): 0.9507 | Th-T fluorescence, mean of three wells (Fig. 7a) (reading M121, compound at 50 (head suffix _50)): 0.4951 | Th-T fluorescence, mean of three wells (Fig. 7a) (reading M122, compound at 10 (head suffix _10)): 1.701 | Th-T fluorescence, mean of three wells (Fig. 7a) (reading M122, compound at 20 (head suffix _20)): 0.9556 | Th-T fluorescence, mean of three wells (Fig. 7a) (reading M122, compound at 50 (head suffix _50)): 0.493 | Th-T fluorescence, mean of three wells (Fig. 7a) (reading M123, compound at 10 (head suffix _10)): 1.651 | Th-T fluorescence, mean of three wells (Fig. 7a) (reading M123, compound at 20 (head suffix _20)): 0.9514 | Th-T fluorescence, mean of three wells (Fig. 7a) (reading M123, compound at 50 (head suffix _50)): 0.4951 | Th-T fluorescence, mean of three wells (Fig. 7a) (reading M124, compound at 10 (head suffix _10)): 1.705 | Th-T fluorescence, mean of three wells (Fig. 7a) (reading M124, compound at 20 (head suffix _20)): 0.9577 | Th-T fluorescence, mean of three wells (Fig. 7a) (reading M124, compound at 50 (head suffix _50)): 0.4977 | Th-T fluorescence, mean of three wells (Fig. 7a) (reading M125, compound at 10 (head suffix _10)): 1.692 | Th-T fluorescence, mean of three wells (Fig. 7a) (reading M125, compound at 20 (head suffix _20)): 0.9599 | Th-T fluorescence, mean of three wells (Fig. 7a) (reading M125, compound at 50 (head suffix _50)): 0.4931 | Th-T fluorescence, mean of three wells (Fig. 7a) (reading M126, compound at 10 (head suffix _10)): 1.704 | Th-T fluorescence, mean of three wells (Fig. 7a) (reading M126, compound at 20 (head suffix _20)): 0.9491 | Th-T fluorescence, mean of three wells (Fig. 7a) (reading M126, compound at 50 (head suffix _50)): 0.4978 | Th-T fluorescence, mean of three wells (Fig. 7a) (reading M127, compound at 10 (head suffix _10)): 1.72 | Th-T fluorescence, mean of three wells (Fig. 7a) (reading M127, compound at 20 (head suffix _20)): 0.9533 | Th-T fluorescence, mean of three wells (Fig. 7a) (reading M127, compound at 50 (head suffix _50)): 0.4965 | Th-T fluorescence, mean of three wells (Fig. 7a) (reading M128, compound at 10 (head suffix _10)): 1.676 | Th-T fluorescence, mean of three wells (Fig. 7a) (reading M128, compound at 20 (head suffix _20)): 0.9486 | Th-T fluorescence, mean of three wells (Fig. 7a) (reading M128, compound at 50 (head suffix _50)): 0.4971 | Th-T fluorescence, mean of three wells (time-course reading M97): 1.027 | Th-T fluorescence, mean of three wells (time-course reading M98): 1.0353 | Th-T fluorescence, mean of three wells (time-course reading M99): 1.027 | Th-T fluorescence, mean of three wells (time-course reading M100): 1.023 | Th-T fluorescence, mean of three wells (time-course reading M101): 1.038 | Th-T fluorescence, mean of three wells (time-course reading M102): 1.048 | Th-T fluorescence, mean of three wells (time-course reading M103): 1.038 | Th-T fluorescence, mean of three wells (time-course reading M104): 1.045 | Th-T fluorescence, mean of three wells (time-course reading M105): 1.028 | Th-T fluorescence, mean of three wells (time-course reading M106): 1.044 | Th-T fluorescence, mean of three wells (time-course reading M107): 1.045 | Th-T fluorescence, mean of three wells (time-course reading M108): 1.036 | Th-T fluorescence, mean of three wells (time-course reading M109): 1.034 | Th-T fluorescence, mean of three wells (time-course reading M110): 1.043 | Th-T fluorescence, mean of three wells (time-course reading M111): 1.041 | Th-T fluorescence, mean of three wells (time-course reading M112): 1.036 | Th-T fluorescence, mean of three wells (time-course reading M113): 1.022 | Th-T fluorescence, mean of three wells (time-course reading M114): 1.039 | Th-T fluorescence, mean of three wells (time-course reading M115): 1.052 | Th-T fluorescence, mean of three wells (time-course reading M116): 1.042
